Reference: paper PMC8119466, “A screen of FDA-approved drugs identifies inhibitors of protein tyrosine phosphatase 4A3 (PTP4A3 or PRL-3)” (Scientific Reports, 2021)
Structures can show the parent of a compound that is named as a salt. Where two headings read alike, the source gives them in different places.

Columns and labels:
Format in all cases: biochemical
recombinant PRL-1 = target: T1, recombinant PRL-1 (Homo sapiens, UniProt Q93096); assay: In vitro phosphatase assay (DiFMUP hydrolysis), PRL-1; note: test concentration or dose not given here
T1 construct: 6xHis (N, cleaved yes); made in house; host or cells: E. coli One Shot BL21 Star
T1 sequence (Q93096 1-173): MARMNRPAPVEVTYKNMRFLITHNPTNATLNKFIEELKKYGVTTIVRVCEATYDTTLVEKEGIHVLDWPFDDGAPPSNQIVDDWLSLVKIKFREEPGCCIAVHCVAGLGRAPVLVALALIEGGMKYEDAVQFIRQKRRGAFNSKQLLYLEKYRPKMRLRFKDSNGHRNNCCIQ

recombinant PRL-2 = target: T2, recombinant PRL-2 (Homo sapiens, UniProt Q12974); assay: In vitro phosphatase assay (DiFMUP hydrolysis), PRL-2;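 note: PRL-2 activity read as DiFMUP hydrolysis after 20 min at room temperature with drug, enzyme first pre-reduced at 4 °C for 20 min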
T2 construct: 6xHis (N, cleaved yes); made in house; host or cells: E. coli One Shot BL21 Star
T2 sequence (Q12974 1-167): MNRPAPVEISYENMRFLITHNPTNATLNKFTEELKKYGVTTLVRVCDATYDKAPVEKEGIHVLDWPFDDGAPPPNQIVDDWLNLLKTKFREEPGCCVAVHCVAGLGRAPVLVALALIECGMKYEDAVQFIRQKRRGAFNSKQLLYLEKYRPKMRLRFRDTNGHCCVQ

recombinant PRL-3 = target: T3, recombinant PRL-3 (Homo sapiens, UniProt O75365); assay: In vitro phosphatase assay (DiFMUP hydrolysis), PRL-3; note: test concentration or dose not given here
T3 construct: 6xHis (N, cleaved yes); made in house; host or cells: E. coli One Shot BL21 Star

[1] = FDA-approved drug screen, compared to DMSO
[2] = FDA-approved drug screen, activity compared to DMSO

T3 sequence (O75365 whole entry): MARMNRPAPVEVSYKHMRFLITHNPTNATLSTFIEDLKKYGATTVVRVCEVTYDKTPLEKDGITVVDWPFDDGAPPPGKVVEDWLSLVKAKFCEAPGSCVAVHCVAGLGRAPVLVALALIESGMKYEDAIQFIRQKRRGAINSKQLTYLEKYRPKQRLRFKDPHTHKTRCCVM

Molecule	% Phosphatase Activity (compared to DMSO) PRL-1 (recombinant PRL-1; [1])	% Phosphatase Activity (compared to DMSO) PRL-2 (recombinant PRL-2; [1])	% Phosphatase Activity (compared to DMSO) PRL-3 (recombinant PRL-3; [1])	other results
C[C@@H]1C[C@H]2[C@@H]3CCC4=CC(=O)C=C[C@]4(C)[C@@]3(F)[C@@H](O)C[C@]2(C)[C@@]1(O)C(=O)CO [Dexamethasone (DHAP)]	99%	94%	66%	
CCN(C)C(=O)Oc1cccc([C@H](C)N(C)C)c1 [Rivastigmine Tartrate]	95%	107%	79%	
C[C@]1(Cn2ccnn2)[C@H](C(=O)O)N2C(=O)C[C@H]2S1(=O)=O [Tazobactam]				% Phosphatase Activity (compared to DMSO) PRL-1 (recombinant PRL-1; [2]): 102%; % Phosphatase Activity (compared to DMSO) PRL-2 (recombinant PRL-2; [2]): 103%; % Phosphatase Activity (compared to DMSO) PRL-3 (recombinant PRL-3; [2]): 86%
O=C(O)c1ccc2c(c1)nc(Nc1cccc(Cl)c1)c1ccncc12 [CX-4945 (Silmitasertib)]	85%	81%	86%	
CNC(=O)[C@H](Cc1c[nH]c2ccccc12)NC(=O)[C@@H](CC(=O)NO)CC(C)C [Ilomastat (GM6001, Galardin)]	94%	80%	91%	
NC(=O)C(c1ccccc1)(c1ccccc1)[C@@H]1CCN(CCc2ccc3c(c2)CCO3)C1 [Darifenacin HBr]				% Phosphatase Activity (compared to DMSO) PRL-1 (recombinant PRL-1): 100%; % Phosphatase Activity (compared to DMSO) PRL-2 (recombinant PRL-2): 102%; % Phosphatase Activity (compared to DMSO) PRL-3 (recombinant PRL-3): 87%
CCCCOc1ccc(C(=O)CCN2CCCCC2)cc1 [Dyclonine HCl]	91%	103%	102%	
CC(CN(C)C)CN1c2ccccc2CCc2ccccc21 (stereo not drawn) [Trimipramine Maleate]				% Phosphatase Activity (compared to DMSO) PRL-1 (recombinant PRL-1; [2]): 94%; % Phosphatase Activity (compared to DMSO) PRL-2 (recombinant PRL-2; [2]): 97%; % Phosphatase Activity (compared to DMSO) PRL-3 (recombinant PRL-3; [2]): 90%
O=C(O)CSc1nnc(Br)n1-c1ccc(C2CC2)c2ccccc12 [Lesinurad]	90%	102%	85%	
C#Cc1cccc(Nc2ncnc3cc(OC)c(OCCCCCCC(=O)NO)cc23)c1 [CUDC-101]	94%	87%	79%	
Vitamin E				% Phosphatase Activity (compared to DMSO) PRL-1 (recombinant PRL-1; [2]): 108%; % Phosphatase Activity (compared to DMSO) PRL-2 (recombinant PRL-2; [2]): 90%; % Phosphatase Activity (compared to DMSO) PRL-3 (recombinant PRL-3; [2]): 90%
Clc1ccc(C(Cn2ccnc2)OCc2csc3c(Cl)cccc23)c(Cl)c1 (stereo not drawn) [Sertaconazole nitrate]				% Phosphatase Activity (compared to DMSO) PRL-1 (recombinant PRL-1; [2]): 110%; % Phosphatase Activity (compared to DMSO) PRL-2 (recombinant PRL-2; [2]): 101%; % Phosphatase Activity (compared to DMSO) PRL-3 (recombinant PRL-3; [2]): 99%
CC#C[C@]1(O)CC[C@H]2[C@@H]3CCC4=CC(=O)CCC4=C3[C@@H](c3ccc(N(C)C)cc3)C[C@@]21C [Mifepristone]	96%	135%	95%	
CCOC(=O)n1ccn(C)c1=S [Carbimazole]	103%	114%	78%	
CCCCC(=O)O[C@]1(C(=O)CO)[C@@H](C)C[C@H]2[C@@H]3CCC4=CC(=O)C=C[C@]4(C)[C@@]3(F)[C@@H](O)C[C@@]21C [Betamethasone valerate (Betnovate)]	97%	83%	79%	
CC(S)C(=O)NCC(=O)O (stereo not drawn) [Tiopronin]				% Phosphatase Activity (compared to DMSO) PRL-1 (recombinant PRL-1; [2]): 90%; % Phosphatase Activity (compared to DMSO) PRL-2 (recombinant PRL-2; [2]): 119%; % Phosphatase Activity (compared to DMSO) PRL-3 (recombinant PRL-3; [2]): 98%
O=C1O[C@H]([C@@H](O)CO)C(O)=C1O [Vitamin C]				% Phosphatase Activity (compared to DMSO) PRL-1 (recombinant PRL-1; [2]): 96%; % Phosphatase Activity (compared to DMSO) PRL-2 (recombinant PRL-2; [2]): 105%; % Phosphatase Activity (compared to DMSO) PRL-3 (recombinant PRL-3; [2]): 75%
CCOC(=O)c1ncn2c1CN(C)C(=O)c1cc(F)ccc1-2 [Flumazenil]	106%	102%	69%	
CCOc1ccc(Cc2cc([C@@H]3O[C@H](SC)[C@@H](O)[C@H](O)[C@H]3O)ccc2Cl)cc1 [Sotagliflozin (LX4211)]				% Phosphatase Activity (compared to DMSO) PRL-1 (recombinant PRL-1; [2]): 100%; % Phosphatase Activity (compared to DMSO) PRL-2 (recombinant PRL-2; [2]): 88%; % Phosphatase Activity (compared to DMSO) PRL-3 (recombinant PRL-3; [2]): 85%
Cc1cc(Nc2ncc(Cl)c(Nc3ccccc3S(=O)(=O)C(C)C)n2)c(OC(C)C)cc1C1CCNCC1 [LDK378]	99%	92%	114%	

Molecule	% Phosphatase Activity (compared to DMSO) PRL-1 (recombinant PRL-1; [1])	% Phosphatase Activity (compared to DMSO) PRL-2 (recombinant PRL-2; [1])	% Phosphatase Activity (compared to DMSO) PRL-3 (recombinant PRL-3; [1])	other results
Cl.O=S(=O)(c1cccc2cnccc12)N1CCCNCC1 [Fasudil (HA-1077) HCl]	102%	95%	82%	
C[C@@H]1O[C@@H]1P(=O)(O)O.NC(CO)(CO)CO [Fosfomycin Tromethamine]	100%	101%	92%	
CC(=O)Oc1cccc2c1C(=O)c1c(OC(C)=O)cc(C(=O)O)cc1C2=O [Diacerein]	32%	51%	31%	
Clc1ccc(COC(Cn2ccnc2)c2ccc(Cl)cc2Cl)c(Cl)c1 (stereo not drawn) [Miconazole]	109%	101%	86%	
Cn1c(=O)c2[nH]cnc2n(C)c1=O [Aminophylline]	97%	96%	62%	
CC(C(=O)[O-])c1cccc(Oc2ccccc2)c1.CC(C(=O)[O-])c1cccc(Oc2ccccc2)c1.[Ca+2] (stereo not drawn) [Fenoprofen Calcium]	82%	80%	95%	
CC1(C)O[C@@H]2C[C@H]3[C@@H]4C[C@H](F)C5=CC(=O)C=C[C@]5(C)[C@@]4(F)[C@@H](O)C[C@]3(C)[C@]2(C(=O)CO)O1 [Fluocinolone Acetonide]	110%	111%	82%	
CS(=O)(=O)OCCCCOS(C)(=O)=O [Busulfan]	103%	95%	79%	
C[C@@H]1COC(Nc2ccc3ncnc(Nc4ccc(OCc5nccs5)c(Cl)c4)c3c2)=N1 [Varlitinib]				% Phosphatase Activity (compared to DMSO) PRL-1 (recombinant PRL-1; [2]): 126%; % Phosphatase Activity (compared to DMSO) PRL-2 (recombinant PRL-2; [2]): 142%; % Phosphatase Activity (compared to DMSO) PRL-3 (recombinant PRL-3; [2]): 132%
c1ccc(-c2ccc(C(c3ccccc3)n3ccnc3)cc2)cc1 (stereo not drawn) [Bifonazole]	86%	108%	94%	
C=C1CC[C@H](O)C/C1=C/C=C1\CCC[C@]2(C)[C@@H]([C@H](C)/C=C/[C@H](C)C(C)C)CC[C@@H]12 [Vitamin D2]				% Phosphatase Activity (compared to DMSO) PRL-1 (recombinant PRL-1; [2]): 95%; % Phosphatase Activity (compared to DMSO) PRL-2 (recombinant PRL-2; [2]): 99%; % Phosphatase Activity (compared to DMSO) PRL-3 (recombinant PRL-3; [2]): 84%
O=C(O)c1cc(=O)[nH]c(=O)[nH]1.O=C(O)c1cc(=O)[nH]c(=O)[nH]1 [Orotic acid (6-Carboxyuracil)]	106%	109%	95%	
Cc1cnc(C(=O)NCCc2ccc(S(=O)(=O)NC(=O)NC3CCCCC3)cc2)cn1 [Glipizide]				% Phosphatase Activity (compared to DMSO) PRL-1 (recombinant PRL-1): 97%; % Phosphatase Activity (compared to DMSO) PRL-2 (recombinant PRL-2): 98%; % Phosphatase Activity (compared to DMSO) PRL-3 (recombinant PRL-3): 75%
CCCCCCc1ccc(O)cc1O [Hexylresorcinol]	90%	83%	84%	
CC#CCn1c(N2CCC[C@@H](N)C2)nc2c1c(=O)n(Cc1nc(C)c3ccccc3n1)c(=O)n2C [Linagliptin]	115%	131%	100%	
CC(C)c1nc(CN(C)C(=O)N[C@H](C(=O)N[C@@H](Cc2ccccc2)C[C@H](O)[C@H](Cc2ccccc2)NC(=O)OCc2cncs2)C(C)C)cs1 [Ritonavir]	103%	108%	90%	
CCC1(c2ccccc2)C(=O)NCNC1=O [Primidone]	84%	93%	79%	
CC(C)N(CCC(C(N)=O)(c1ccccc1)c1ccccn1)C(C)C (stereo not drawn) [Disopyramide Phosphate]	94%	107%	93%	
CCn1c(=O)c(-c2cc[nH]n2)cc2c(C)nc(N)nc21 [SAR245409 (XL765)]	89%	74%	74%	
C[N+]1(C)CCC(OC(=O)C(O)(c2ccccc2)C2CCCC2)C1 (stereo not drawn) [Glycopyrrolate]	108%	101%	82%	
